Laboratory results: ChEMBL document CHEMBL5252515, “Discovery of 6-Amino-2-{[(1S)-1-methylbutyl]oxy}-9-[5-(1-piperidinyl)pentyl]-7,9-dihydro-8H-purin-8-one (GSK2245035), a Highly Potent and Selective Intranasal Toll-Like Receptor 7 Agonist for the Treatment of Asthma” (J Med Chem, 2016)

Target: T1, Toll-like receptor 7 (Macaca fascicularis) (UniProt B3Y652)
T1 sequence (whole entry): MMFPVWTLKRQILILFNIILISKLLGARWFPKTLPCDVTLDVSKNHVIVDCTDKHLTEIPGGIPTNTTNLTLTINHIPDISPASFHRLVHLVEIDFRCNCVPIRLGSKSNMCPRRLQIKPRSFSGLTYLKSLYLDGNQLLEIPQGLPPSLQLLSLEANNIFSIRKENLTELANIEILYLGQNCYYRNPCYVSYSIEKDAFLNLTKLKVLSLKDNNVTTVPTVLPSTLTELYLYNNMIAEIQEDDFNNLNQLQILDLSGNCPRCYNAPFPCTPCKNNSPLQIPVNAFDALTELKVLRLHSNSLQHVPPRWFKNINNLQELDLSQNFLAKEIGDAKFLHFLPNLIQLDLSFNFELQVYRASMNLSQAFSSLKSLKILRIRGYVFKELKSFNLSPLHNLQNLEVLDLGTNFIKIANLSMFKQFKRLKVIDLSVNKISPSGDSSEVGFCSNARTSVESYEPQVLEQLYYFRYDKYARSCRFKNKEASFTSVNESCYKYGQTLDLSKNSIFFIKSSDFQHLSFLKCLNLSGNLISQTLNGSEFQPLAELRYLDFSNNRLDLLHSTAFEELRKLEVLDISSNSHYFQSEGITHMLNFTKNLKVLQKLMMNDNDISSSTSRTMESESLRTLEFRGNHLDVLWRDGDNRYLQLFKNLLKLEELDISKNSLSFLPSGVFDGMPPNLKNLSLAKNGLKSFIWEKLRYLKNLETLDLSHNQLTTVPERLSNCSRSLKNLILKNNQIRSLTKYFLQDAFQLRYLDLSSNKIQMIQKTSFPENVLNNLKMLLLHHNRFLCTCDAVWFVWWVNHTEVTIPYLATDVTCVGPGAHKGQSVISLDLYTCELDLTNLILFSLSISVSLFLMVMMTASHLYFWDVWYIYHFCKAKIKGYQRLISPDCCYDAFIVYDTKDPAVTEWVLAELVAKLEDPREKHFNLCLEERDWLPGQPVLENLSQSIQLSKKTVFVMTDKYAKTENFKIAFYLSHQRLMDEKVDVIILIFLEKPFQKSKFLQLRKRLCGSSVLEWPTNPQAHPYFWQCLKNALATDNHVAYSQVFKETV
Experiment: In vivo target occupancy at TLR7 in cynomolgus monkey assessed as fold increase in OAS1 mRNA expression in nasal scrape at 3 ng/kg administered intranasally incubated for 24 hrs by TaqMan analysis (reference value: 1.2)
Type: functional

fold change (FC): 38.9
Compound: CCC[C@H](C)Oc1nc(N)c2[nH]c(=O)n(CCCCCN3CCCCC3)c2n1 [GSK-2245035]
